According to paper PMC5655689, “Therapeutic potential of the phosphino Cu(I) complex (HydroCuP) in the treatment of solid tumors” (Scientific Reports, 2017):
Where “and” joins values, the source holds several entries; their conditions need not be identical. Identical values can stand only once.

Columns and labels:
[1] = tested on: Lewis Lung Carcinoma (LLC); test: In vivo antitumor activity towards Lewis Lung Carcinoma (LLC) implanted i.m. in C57BL mice; design: species or system mouse; conditions: for Average tumor weight (mean ± S.D., g) / Inhibition of tumor growth (%): day 15; for Body weight changes: LLC-bearing C57BL mice
Experimental: The schedule of HydroCuP administration in vivo was initially determined by assessing the total dose that could be injected without undue toxicity for different schedules in nontumor-bearing C57BL mice (data not shown). […] Three schedules of i.p. HydroCuP were administered: early treatment (days 3, 5, 7 and 9 after tumor inoculum), intermediate treatment (days 7–14) and late treatment with split-doses (days 9–11 with a loading dose and days 12–14 with a lower maintenance dose). […] Cisplatin treatment schedule was selected according to standard protocols designed to optimize its efficacy and minimize the occurrence of adverse events. For the early treatment, control mice received the vehicle (0.9% NaCl). HydroCuP was dosed at 25, 35 and 50 mg/kg i.p. on days 3, 5, 7, 9, 11 and 13 after tumor implantation. Cisplatin was dosed at 1.5 mg/kg i.p. on days 3, 5, 7, 9, 11 and 13 after tumor implantation.
The mice were purchased from Charles River, Italy, housed in steel cages under controlled environmental conditions (constant temperature, humidity, and 12 h dark/light cycle), and alimented with commercial standard feed and tap water ad libitum. The LLC cell line was purchased from ECACC, United Kingdom. The LLC cell line was maintained in DMEM (Euroclone, Pero, Italy) supplemented with 10% heat-inactivated foetal bovine serum (Euroclone, Pero, Italy), 10 mM L-glutamine, 100 U/mL penicillin, and 100 µg/mL streptomycin in a 5% CO2 air incubator at 37 °C. The LLC was implanted intramuscularly (i.m.) as a 2 × 10^6 cell inoculum into the right hind leg of 8-week old male and female C57BL mice (24 ± 3 g body weight). The antitumor activity of HydroCuP in LLC tumor model has been investigated by means of different schedules (early treatment, intermediate treatment and late treatment) and compared with that promoted by the reference metallodrug, CDDP. In the early-stage treatment, animals were treated at day 3, 5, 7, 9, 11 and 13 after the tumor cell inoculum with an i.p. injection of HydroCuP (25, 35 and 50 mg/kg), CDDP (1.5 mg/kg) or the vehicle solution (0.9% NaCl).
In the intermediate treatment, animals were treated after 7 days from tumor implantation (visible tumor) with daily i.p. doses of HydroCuP (30 and 50 mg/kg), CDDP (1.5 mg/kg) or the vehicle solution (0.9% NaCl). In the late treatment, animals were treated after 9 days from tumor implantation (palpable tumor) with i.p. doses of HydroCuP (50 mg/kg) from day 9 to day 11 and with i.p. doses of HydroCuP (30 mg/kg) from day 12 to day 14, or with daily doses of CDDP (1.5 mg/kg) or with the vehicle solution (0.9% NaCl). At day 15, animals were sacrificed, the legs were amputated at the proximal end of the femur, and the inhibition of tumor growth was determined according to the difference in weight of the tumor-bearing leg and the healthy leg of the animals expressed as a percentage referring to the control animals. Body weight was measured every 2 days and was taken as a parameter for systemic toxicity.

[2] = tested on: LoVo human colon cancer spheroids; test: 3D spheroid cell viability, acid phosphatase (APH) assay, LoVo; format: cell-based; conditions: 72 h, APH test, read-out: IC50 (μM) ± SD LoVo
Experimental: (§1) In order to improve the predictive capacity of the in vitro assays, we tested HydroCuP activity in two 3D cell cultures of human colon cancer cells, HCT-15 and LoVo. The colon cancer spheroids were treated with HydroCuP for 72 h and the cell viability was assessed by means of the acid phosphatase (APH) assay (Fig. 1, panel A).
(§2) Figure 1 Activity in 3D cell cultures. (A) Spheroids (2.5 × 10^3 cells/well) were treated for 72 h with increasing concentrations of tested compounds. The growth inhibitory effect was evaluated by means of APH test. IC50 values were calculated from the dose-survival curves by four parameter logistic model (P < 0.05). SD = standard deviation.
(§3) Spheroids were initiated in liquid overlay by seeding 2.5 × 10^3 HCT-15 and LoVo cells/well in phenol red-free RPMI-1640 medium (Sigma Chemical Co.), containing 10% FCS and supplemented with 20% methyl cellulose stock solution. A total of 150 μl of this cell suspension was transferred to each well of a round bottom non-tissue culture treated 96 well-plate (Greiner Bio-one, Kremsmünster, Austria) to allow spheroid formation within 72 h.
(§4) A modified APH assay, which is based on quantification of cytosolic acid phosphatase activity, was used for determining cell viability in spheroids. Briefly, the pre-seeded spheroids were treated with fresh medium containing the compound to be studied at the appropriate concentration (range 5–150 μM). Triplicate cultures were established for each treatment. After 72 h, each well was treated with 100 μL of the assay buffer (0.1 M sodium acetate, 0.1% Triton-X-100, supplemented with ImmunoPure p-nitrophenyl phosphate; Sigma Chemical Co.) and, following 3 h of incubation, 10 μL of 1 M NaOH solution were added. The inhibition of the cell growth induced by the tested complexes was detected by measuring the absorbance of each well at 405 nm, using a Bio-Rad 680 microplate reader. Mean absorbance for each drug dose was expressed as a percentage of the control untreated well absorbance (T/C) and plotted vs drug concentration. IC50 values, the drug concentrations that reduce the mean absorbance at 405 nm 50% of those in the untreated control wells, were calculated by four-parameter logistic (4-PL) model. Evaluation was based on means from at least four independent experiments.

[3] = Nephrotoxicity: urinary biomarkers (uTP, NAG) in Sprague Dawley rats; format: in vivo, rat; conditions: single i.p. 1.5 mg/kg, urine 24, 72, 120 h
Experimental: Figure 5 Neurotoxicity studies. […] Bar: 500 µm. […] Nephrotoxicity studies. […] Error bars indicate the S.D. The potential nephrotoxic effect of HydroCuP was evaluated by measuring some specific biomarkers in urines obtained from 8-week-old male Sprague Dawley rats treated with a single i.p. injection of HydroCuP and CDDP. Urines of the treated animals were collected after 24, 72 and 120 h, and urinary total protein (uTP) and N-acetyl-β-D-glucosaminidase (NAG) were evaluated as signs of nephrotoxicity. […] On the contrary, treatment with HydroCuP determined a 24 h excretion of uTP roughly 12 times lower than that recorded with CDDP (Fig. 5, panel D). Following 120 h, the levels of uTP excreted by HydroCuP were 11 times lower compared with the reference metallodrug. Eight-week-old male Sprague Dawley rats were randomly allocated to five groups (five animals per group) and treated with a single i.p. injection of HydroCuP (50 mg/kg) or the vehicle solution (0.2 mL saline solution, control). Cisplatin (1.5 mg/kg,) was also used under the same experimental conditions for comparison purposes. […] Later, urines were centrifuged (150 g for 10 minutes at room temperature) to discard debris and aliquoted to measure creatinine, uTP and NAG. Urine creatinine assays were performed using creatinine assay kit from Sigma Chemical Co. (St. Louis, MO). uTPs were measured by means of BioRad Total Protein Test (Hercules, CA). Urinary NAG was measured spectrophotometrically with the NAG kit (Roche diagnostics, Basel, Switzerland) according to the manufacturer’s protocols. uTP and NAG are expressed as grams per millimoles of creatinine (g mmol^−1 creatinine).

[4] = tested on: DRG explants from 15 day-embryonic Sprague-Dawley rats; test: Neurotoxicity: neurite elongation in DRG explants; conditions: 48 h, DRG explants with NGF; for Neurotoxic effect (neurite elongation): OXP 5, 7.5, 10 μM, HydroCuP 5, 10, 20 μM
Experimental: To investigate the potential neurotoxic effect of HydroCuP, we employed a well-established in vitro model based on organotypic cultures of DRG from 15-day-old rat embryos. Neurite elongation under NGF influence was evaluated in DRG explants. […] For comparison purposes, the effect induced by the reference drugs OXP and CDDP was also tested.
OXP and HydroCuP toxicity at 48 h in DRG explants from 15 day-embryonic Sprague-Dawley rats. Representative images of neurite length in maturing DRG explants with different concentrations of OXP and HydroCuP (A). Bar: 500 µm.
DRG from E15 Sprague-Dawley rats (Envigo, San Pietro al Natisone, Italy) were aseptically removed and cultured onto a single layer of rat tail collagen surfaces in 35-mm dishes as previously described[36].
The DRG were incubated in AN2 medium [MEM added with 1.4 mM L-glutamine (Euroclone, Pero, Italy), 10% calf bovine serum (Hyclone, Thermo Scientific, Logan, UT) 50 µg/ml ascorbic acid, 0.6% glucose (Sigma-Aldrich) in the presence of 5 ng/ml nerve growth factor (NGF; Life Technologies, Monza, Italy) in a 5% CO2 humidified incubator at 37 °C.
To evaluate the neurotoxicity of HydroCuP and OXP, the DRG explants were treated for 2 h with NGF and subsequently exposed to each drug at different concentrations for 48 h. OXP was tested at 5, 7.5 and 10 μM while 5, 10 and 20 μM of HydroCuP was used. DRG treated with AN2 medium supplemented with 5 ng/ml NGF alone were used as controls. Phase-contrast micrographs were taken, and the length of the longest neurite in each DRG was measured by Image J (NIH, Bethesda, MD), using a standard calibration grating photographed at the same magnification. A compound is considered neurotoxic when the mean neurite elongation is reduced by 50% or more after drug exposure vs control.

[5] = design: method as in PMID 24035926; conditions: patients under cisplatin treatment; cited from earlier work
[6] = tested on: HCT-15 human colon cancer spheroids; test: 3D spheroid cell viability, acid phosphatase (APH) assay, HCT-15; format: cell-based; conditions: HCT-15 spheroids, 72 h, APH test; read-out: IC50 (μM) ± SD HCT-15
Experimental: as §1, §2, §3, §4

[7] = tested on: LoVo colorectal oxaliplatin-resistant xenograft; test: In vivo activity toward LoVo-OXP (OXP-resistant) tumor xenograft in BALB/c nu/nu mice
Experimental: (§5) To this aim, we developed the OXP-sensitive and OXP-resistant LoVo xenografts in BALB/c nu/nu mice. […] OXP-sensitive or OXP-resistant LoVo cells (1 × 10^7) were injected in the flank of mice. Once tumor was established (tumor volumes of about 0.4 cm^3, around 14 days after tumor inoculation), mice were randomly divided into six groups (6 animals per group, 8 controls). The HydroCuP-treated groups (6 mice each group) received daily 30 mg/kg by i.p. injection and the OXP-treated group was given 2 mg/kg by i.p. injection. At day 30, animals were sacrificed, and the inhibition of tumor growth was determined (Fig. 4, panel A). Measurements of body weights were recorded from day 14 every 2 days until the experimental endpoint (Fig. 4, panel B).
(§6) (A) LoVo and LoVo-OXP tumor xenografts in 6-week-old BALB/c nu/nu mice by injecting 1 × 10^7 tumor cells subcutaneously on the left dorsal flank. After 24 h from tumor implantation, mice randomly divided into six groups (6 animals per group). Chemotherapy delayed until day 14 (tumor volumes of about 0.4 cm^3). From day 14, HydroCuP dosed daily at 30 mg/kg i.p., OXP dosed daily at 2 mg/kg i.p. At day 30, animals sacrificed, and the inhibition of tumor growth determined by comparing the volume of the control group and the treatment group expressed as percentage referred to the control animals. Error bars indicate the S.D. *p < 0.05, **p < 0.01, with respect to control. […] Body weight was measured every two days and was taken as a parameter of systemic toxicity. The error bars indicate the S.D. **P < 0.01; *P < 0.05.
(§7) LoVo and LoVo-OXP tumor xenografts were established in 6-week-old BALB/c nu/nu mice by injecting 1 × 10^7 tumor cells subcutaneously (100 μL in serum free medium) on the left dorsal flank. After 24 h from tumor implantation, mice were randomly divided into six groups (6 animals per group, 8 controls). Chemotherapy was delayed until the tumor was about 0.4 cm^3 (day 14). From day 14, HydroCuP was dosed daily at 30 mg/kg i.p. whereas OXP was dosed daily at 2 mg/kg i.p. Measurements of body weights and tumor volumes were recorded from day 14 every 2 days until the experimental endpoint. The long axis (L) and the short axis (S) were measured with callipers, and the tumor volume (V) was calculated using the following equation: V = SxSxL/2. At day 30, animals were sacrificed, and the inhibition of tumor growth was determined by comparing the volume of the control group and the treatment group expressed as percentage referred to the control animals.

[8] = patients, reported by the Food and Drug Administration; cited from earlier work
[9] = tested on: LoVo colorectal oxaliplatin-sensitive xenograft; test: In vivo activity toward LoVo (OXP-sensitive) tumor xenograft in BALB/c nu/nu mice
Experimental: as §5, §6, §7

[10] = Early treatment, 1.5 mg/kg i.p. days 3, 5, 7, 9, 11, 13
[11] = 2 mg/kg daily i.p. from day 14, day 30

SMILES | Average tumor weight (mean ± S.D., g) [1, 10] [g] | Inhibition of tumor growth (%) [1, 10] [%] | Body weight changes ([1]; Early treatment, 15 days) | Average tumor weight (mean ± S.D., g) ([1]; Intermediate treatment, 1.5 mg/kg daily i.p. day 7-14) [g] | Inhibition of tumor growth (%) ([1]; Intermediate treatment, 1.5 mg/kg daily i.p. day 7-14, 1.5 mg/kg) | Body weight changes ([1]; Intermediate treatment) | Average tumor weight (mean ± S.D., g) ([1]; Late treatment, 1.5 mg/kg daily i.p. from day 9) [g] | Inhibition of tumor growth (%) ([1]; Late treatment, 1.5 mg/kg daily i.p. from day 9, 1.5 mg/kg) | IC50 [2] [µM] | NAG [3] | uTP excretion [3] | Neurotoxic effect (neurite elongation) [4] | Patients with irreversible renal damage [5] | IC50 [6] [µM] | Body weight loss ([7]; 2 mg/kg daily i.p.) | Inhibition of tumor growth [7, 11] [%] | Rate of symptomatic neurotoxicity with any severity [8] | Reduction of neurite length ([4]; 7.5 µM) [%] | Body weight loss ([9]; 2 mg/kg daily i.p.) | Inhibition of tumor growth [9, 11]
[NH2][Pt]([NH2])([Cl])[Cl] [CDDP, cisplatin, reference compound] | 0.168 ± 0.10 | 73.66 | substantial weight loss | 0.061 ± 0.03 | 87% and 87.84% | elevated weight loss | 0.118 ± 0.10 | 73% and 72.68% | 60.6 ± 6.28 | significant increase | significant increase of uTP excretion | significantly reduced neurite elongation in a dose-dependent manner | about one-third | 68.2 ± 4.58 |  |  |  |  |  | 
O=C1[O][Pt]2([NH][C@@H]3CCCC[C@H]3[NH]2)[O]C1=O [OXP, oxaliplatin] |  |  |  |  |  |  |  |  | 22.2 ± 4.75 |  |  | significantly reduced neurite elongation in a dose-dependent manner |  | 30.2 ± 2.34 | about 23% | 20 | more than 70% | 50 | about 23% | about 55%
